We go through 8 compounds from publication PMC12154214, “Bioactive Peptides from Sodium Caseinate Hydrolysate with High Oral Absorption Regulate Blood Glucose in Type 2 Diabetic Mice via Inhibition of DPP-IV and Stimulation of GLP-1” (Foods, 2025).

Entries after “also recorded” stand apart in the source; their conditions may differ. Where two headings read alike, the source gives them in different places. No end group written: not given here.

For one data set, the target named is T1, DPP-IV (Sus scrofa, UniProt P22411).
T1 construct: purchased Sigma-Aldrich D7052; host or cells: porcine kidney (tissue-derived)
T1 sequence (P22411 whole entry): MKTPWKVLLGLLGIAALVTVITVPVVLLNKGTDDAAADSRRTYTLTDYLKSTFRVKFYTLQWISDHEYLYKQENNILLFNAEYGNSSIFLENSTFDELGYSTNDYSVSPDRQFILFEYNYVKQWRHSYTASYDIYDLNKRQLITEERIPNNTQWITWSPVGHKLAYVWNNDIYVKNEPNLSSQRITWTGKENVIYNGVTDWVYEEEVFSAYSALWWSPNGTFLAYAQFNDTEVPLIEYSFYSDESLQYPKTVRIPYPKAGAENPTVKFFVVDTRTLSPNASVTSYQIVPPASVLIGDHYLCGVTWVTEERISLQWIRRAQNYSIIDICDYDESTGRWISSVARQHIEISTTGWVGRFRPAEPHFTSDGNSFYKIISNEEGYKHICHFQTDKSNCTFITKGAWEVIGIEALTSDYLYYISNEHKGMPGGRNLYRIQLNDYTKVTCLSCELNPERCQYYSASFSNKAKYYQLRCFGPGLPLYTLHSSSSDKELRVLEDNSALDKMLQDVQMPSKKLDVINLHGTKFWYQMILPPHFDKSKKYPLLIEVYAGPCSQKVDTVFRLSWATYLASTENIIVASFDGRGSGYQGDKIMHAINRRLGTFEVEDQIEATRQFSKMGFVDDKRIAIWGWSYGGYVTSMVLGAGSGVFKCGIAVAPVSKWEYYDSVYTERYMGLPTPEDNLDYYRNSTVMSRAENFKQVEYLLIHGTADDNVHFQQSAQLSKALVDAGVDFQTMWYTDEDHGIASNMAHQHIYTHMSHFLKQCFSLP
Description: In vitro DPP-IV inhibition assay. It is filed as biochemical, porcine. The following applies: synthesized peptides, in vitro enzymatic assay. The source says:
Sodium caseinate was obtained from Gemfont Inc. (Taipei, Taiwan). Bromelain, derived from pineapple stem, was obtained from STBIO Media Inc. (New Taipei, Taiwan). Dipeptidyl peptidase-IV (DPP-IV; D7052, sourced from porcine kidney), Gly-Pro-p-nitroanilide, HEPES sodium salt (H3784), and RPMI-1640 medium (R8758) were obtained from Sigma-Aldrich (St. Louis, MO, USA). The remaining chemicals and reagents were of analytical grade and were available from commercial suppliers.
In this study, 1CBR was purified by RP-HPLC using a Model L-2130 HPLC system (Hitachi Ltd., Katsuda, Japan). Afterward, 2 mg of the lyophilized hydrolysate fraction was reconstituted in 1 mL of ddH2O, and 60 μL of the resulting solution was subjected to injection onto a ZORBAX Eclipse Plus C18 column (4.6 mm × 250 mm, Agilent Tech. Inc., Santa Clara, CA, USA) for analysis. A gradient of acetonitrile, ranging from 5% to 60% over 60 min, was applied in 0.1% TFA at 0.7 mL/min. Peptides were monitored at 220 nm. After collection, each fraction was lyophilized and stored in a desiccator for future use. The fractions were then re-dissolved in 100 mM Tris buffer (pH 7.0) to achieve a 1 mg/mL concentration and were evaluated for in vitro DPP-IV inhibitory activity. The assay for DPP-IV inhibition was conducted following the procedure outlined in our previous study.
The selected peptides were generated through Fmoc-based solid-phase peptide synthesis using an automated synthesizer (CS 136, CS Bio Co., San Carlos, CA, USA). Their structural integrity and purity were confirmed via RP-HPLC-MS/MS analysis. To assess their inhibitory potential against DPP-IV, the IC50 values were determined through in vitro enzymatic assays. […]

On the set-up of data set [1]: species or system Sprague–Dawley rats. The note with it: rat, in vivo; for AR30 (absorption ratio at 30 min) / AR90 (absorption ratio at 90 min) / AUC / Cmax / Fractional absorption / Tmax / half-life: po, 16 mg/kg. An excerpt: In this study, GPFPLPD and […] peptides were synthesized and prepared for the in vivo absorption study as outlined in Section 2.4. The experiment involved ten male Sprague–Dawley rats (LASCO, Taipei, Taiwan), each 6 weeks old and weighing between 230 and 250 g. Prior to the experiment, the rats were allowed a 7-day acclimatization period, during which they were fed a 5012-Rat Diet (LabDiet®, St. Louis, MO, USA), consisting of 60% carbohydrates, 13% fat, and 27% protein based on total caloric content. The rats were randomly assigned to two groups (5 rats per group) and orally administered a single dose of either GPFPLPD or […] peptide at 16 mg/kg body weight.
Overnight-fasted rats were administered the peptides, and blood samples were collected from the tail vein at 0, 30, 60, 90, and 180 min post-administration. To obtain plasma, the samples were centrifuged at 3000× g for 15 min at 4 °C. A 500 µL aliquot of plasma was then combined with an equal volume of acetonitrile, followed by additional centrifugation at 1200× g for 10 min at 4 °C to precipitate high-molecular-weight proteins. The resulting supernatant (20 µL) was analyzed via RP-HPLC under the conditions outlined in Section 2.4. Peptide concentrations were quantified using calibration curves from peptide standards prepared in 50% (v/v) acetonitrile (Figure S4). The estimated blood volume of male rats was 6.86 mL per 100 g of body weight.
The pharmacokinetic parameters, including the half-life (t1/2), area under the plasma drug concentration–time curve (AUC), time-to-peak concentration (Tmax), and peak concentration (Cmax), were directly determined and analyzed. The absorption ratio (ARt; %) was defined as the percentage of the administered peptide dose (16 mg/kg BW) present in plasma, calculated as the product of peptide concentration and blood volume at each time point. The AUC method was also employed to quantify peptide absorption. The fractional absorption (%) of orally administered peptides was calculated using the following formula [23]: Fractional absorption (%)=ln2/t1/2×calculated oral AUC×plasma volume/oral dose×100

A short description of data set [2]: MALDI-TOF/TOF check of intact peptide in rat plasma. It counts as in vivo, Sprague–Dawley rats. The note with it: 60 min post-administration, oral 16 mg/kg BW. As for the experimental part:
A 0.6 μL aliquot of peptide solution (1 mg/mL) was mixed with an equal volume of saturated α-cyano-4-hydroxycinnamic acid matrix and then air-dried on the target plate. The dried sample was subsequently analyzed using MALDI-TOF/TOF MS in positive ion reflection mode under a 20 kV accelerating voltage. Mass spectra were generated by averaging 200 laser shots within an m/z range of 200–2500 Da. Tandem mass spectrometry (MS/MS) was performed to determine peptide sequences, with data processed using BioTools software (Version 3.2, Bruker Daltonics, Billerica, MA, USA).
To verify that the peaks observed in the RP-HPLC chromatogram corresponded to the intact peptides GPFPLPD and […], plasma samples from rats with or without peptide administration were analyzed by MALDI-TOF/TOF, as described in Section 2.4.2.

In another data set the test system is db/db mice. Description: Oral glucose tolerance test (OGTT) in db/db mice. It is filed as in vivo. The note with it: week 3, glucose 2 g/kg, 120 min, 1CBR 500 mg/kg/day, sitagliptin 20.5 mg/kg/day, p < 0.05.
In the next data set the test system is plasma insulin. Description: Plasma insulin level in db/db mice (ELISA). It is filed as in vivo. The note with it: after 3-week treatment, 1CBR 500 mg/kg/day, sitagliptin 20.5 mg/kg/day, untreated group C 6.51. As for the experimental part:
(§1) Between the ages of 6 and 8 weeks, the blood glucose concentrations in the mice were monitored weekly. Diabetes was determined in mice when the blood glucose levels surpassed 400 mg/dL after an OGTT test (oral glucose tolerance). The mice were randomly allocated to three groups, each consisting of 13 individuals. The experimental period lasted for 3 weeks. […] Mice were housed in groups of 3–4 per cage. The sample size was determined based on previous studies and ethical considerations (3Rs principle) to achieve adequate statistical power without excessive animal use. […] This dose was also within the effective range reported for other food-derived bioactive protein hydrolysates in rodent models.
(§2) At week 3, blood samples were obtained from all mice into EDTA-treated chilled tubes and then centrifuged at 3000× g for 15 min. The supernatant was kept on ice for up to 3 h for further analysis. Plasma insulin levels and DPP-IV activity were determined using an insulin ELISA kit (Mercodia AB, Uppsala, Sweden) and a DPP-IV assay kit (Enzo Inc., Farmingdale, NY, USA), respectively. Plasma total GLP-1 levels were measured using the glucagon-like peptide-1 (total) kit from RayBiotech Inc. (Norcross, GA, USA), while active GLP-1 levels were assessed with the active GLP-1 kit from Millipore Corp. (Billerica, MA, USA), each from a different supplier.

In a further data set the test system is active GLP-1. Description: Plasma active GLP-1 level in db/db mice. The note with it: after 3-week treatment, 1CBR 500 mg/kg/day, sitagliptin 20.5 mg/kg/day, group C 5.22. It counts as in vivo. As for the experimental part: as §1, §2
In a further data set the test system is total GLP-1. Description: Plasma total GLP-1 level in db/db mice. The following applies: after 3-week treatment, 1CBR 500 mg/kg/day, sitagliptin 20.5 mg/kg/day. It counts as in vivo. The method, then: as §1, §2
The test system of another data set is NCI-H716 cells. In words: In vitro GLP-1 secretion in NCI-H716 cells. It counts as cell-based, human. The following applies: NCI-H716 cells, 2.0, 2.5 and 3.0 mM, 3 h. The method, then:
(§3) NCI-H716 and STC-1 enteroendocrine cell lines are widely conducted to investigate the mechanisms of GLP-1 expression. The STC-1 and NCI-H716 cell lines in this study were sourced from Bioresource Collection and Research (BCRC, Hsinchu, Taiwan). STC-1 cells were seeded in 12-well plates at 2 × 10^6 cells/mL, while NCI-H716 cells were seeded in Matrigel-coated 12-well plates at 2 × 10^5 cells/mL. Upon reaching 85% confluence, the supernatants were replaced with HEPES buffer for STC-1 and RPMI-1640 buffer without FBS for NCI-H716. […] After incubating at 37 °C with 5% CO2 for 3 h, the supernatants were harvested and assessed for GLP-1 levels using the active glucagon-like peptide-1 kit from Millipore Corp. (Billerica, MA, USA).

For a further data set, the system named is STC-1 cells. Description: In vitro GLP-1 secretion in STC-1 cells. It is filed as cell-based. The note with it: STC-1 cells, 2.0, 2.5 and 3.0 mM, 3 h. The method, then: as §3
On the set-up of data set [3]: method as in PMID 29732892. The note with it: rats, single oral dose 100 mg/kg body weight; cited from earlier work.
Details of data set [4]: method as in PMID 38581395. The note with it: rat model, cited from earlier work.
On the set-up of data set [5]: method as in PMID 25387326. The note with it: adult Wistar rats, 40 mg/kg BW; cited from earlier work.

Consider GPFPLPD [GPFPLPD], for which the IC50 (in general, the midpoint of a concentration-inhibition curve) at DPP-IV stood at 99.1 µM. In addition, in [1], the oral bioavailability is given as 11.28%; the “AR30 (absorption ratio at 30 min)” value was 10.21 ± 1.48%; the “AR90 (absorption ratio at 90 min)” value came out at 6.52 ± 0.66%; the AUC (in general, concentration integrated over time) was 40200 ng·h/mL. For the same compound, in data set [1], the Cmax – broadly, the highest concentration seen after dosing – was 26100 ± 4120 ng/mL; the Fractional absorption was determined as 7.2%; the Tmax – broadly, the time from dosing to the highest level – is 1 h; the half-life (in general, how long it takes for the measured level to halve) stood at 1.65 h. Besides, in data set [2], the “structural integrity in plasma (MALDI-TOF/TOF)” value was “remained structurally intact”.
On to APDSGNFR, for which the IC50 at DPP-IV was determined as 73.1 µM. For the same compound, in data set [1], the oral bioavailability was found to be 19.12%, the “AR30 (absorption ratio at 30 min)” value is 12.74 ± 2.17%, the “AR90 (absorption ratio at 90 min)” value is given as 12.40 ± 1.97% and the AUC was 66600 ng·h/mL. Further, in data set [1], the Cmax is 44600 ± 9330 ng/mL, the Fractional absorption worked out at 10.8%, the Tmax is 1 h and the half-life came out at 1.82 h. Besides, the “structural integrity in plasma (MALDI-TOF/TOF)” value in data set [2] is listed as “remained structurally intact”.
Turning to GGKPSSMT, at DPP-IV, 839 µM corresponded to half-maximal inhibition (IC50).
For the compound `N[C@@H](CC(=O)N1CCn2c(nnc2C(F)(F)F)C1)Cc1cc(F)c(F)cc1F` [sitagliptin], the “OGTT AUC compared to group C” value with db/db mice is listed as “significantly lower AUC values”. Moreover, the plasma insulin level with plasma insulin came out at 11.31 µg/L. The “plasma active GLP-1 level” value in the data set on active GLP-1 stood at 12.29 pM. Moreover, in the data set on total GLP-1, the “plasma total GLP-1 level” value is “unchanged”. For the same compound, the “effect on GLP-1 secretion (in words)” value in the data set with NCI-H716 cells and in the data set on STC-1 cells was “did not influence GLP-1 secretion; also recorded: failed to induce GLP-1 secretion” in each case.
Turning to WDHHAPQLR [antioxidative peptide], in [3], the bioavailability (commonly the share of a dose that reaches the circulation, judged against a reference dose that is usually intravenous) was 3.56% and the elimination half-life is 1.19 h.
Consider IRW, for which the elimination half-life in data set [4] (intravenous injection) was 0.475 h; in data set [4] (oral administration), 0.132 h. Also, the bioavailability in data set [4] is 11.7%.
For GGHLFFC [GGHLFFC], at DPP-IV, the IC50 was determined as 642 µM.
As to HLPLP, in [5], the Cmax is listed as 20.1 ng/mL and the absolute bioavailability is reported as 5.18%.
